Among the data in patent US8937084B2, “Nitrogen containing morphinan derivatives and the use thereof” (Purdue Pharma L.P., priority 2012, dated 2015) are EC50 and Emax values, retold here.

The structures appear in SMILES notation.

The target in this test is κ opioid receptor (Homo sapiens (Human), UniProt P41145). The test is described as follows: κ-opioid receptor [35S]GTPγS functional assay, U-2 OS cells. The format is biochemical. The settings on record: for EC50: GTPγS; for Emax: relative to U69,593. As for the experimental part:
κ-Opioid Receptor Functional Assay Procedures: Functional [^35S]GTPγS binding assays were conducted as follows. κ opioid receptor membrane solution was prepared by sequentially adding final concentrations of 0.026 μg/μl κ membrane protein (in-house), 10 μg/mL saponin, 3 μM GDP and 0.20 nM [^35S]GTPγS to binding buffer (100 mM NaCl, 10 mM MgCl2, 20 mM HEPES, pH 7.4) on ice. The prepared membrane solution (190 μl/well) was transferred to 96-shallow well polypropylene plates containing 10 μl of 20× concentrated stock solutions of agonist prepared in DMSO. Plates were incubated for 30 min at a temperature of about 25° C. with shaking. Reactions were terminated by rapid filtration onto 96-well Unifilter GF/B filter plates (Perkin Elmer, Shelton, Conn.) using a 96-well tissue harvester (Packard) and followed by three filtration washes with 200 μl ice-cold binding buffer (10 mM NaH2PO4, 10 mM Na2HPO4, pH 7.4). Filter plates were subsequently dried at 50° C. for 2-3 hours. Fifty μl/well scintillation cocktail (Perkin Elmer, Shelton, Conn.) was added and plates were counted in a Packard Top-Count for 1 min/well.
κ-Oploid Receptor Functional Data: κ GTP EC50 is the concentration of a compound providing 50% of the maximal response for the compound at a K receptor.
κ GTP Emax (%) is the maximal effect elicited by a compound relative to the effect elicited by U69,593.
The following TABLE 3 provides results on the activity response of certain Compounds of the Invention at the μ- and κ-opioid receptors determined as described above using U-2 OS cells.
For orientation: GTPγS resists hydrolysis and so accumulates on activated G proteins.

For `NC(=O)CN1C[C@H]2[C@H]3Cc4ccc(O)cc4[C@@]2(CCN3CC2CC2)CC1=O` [Compound 4, 2-((4aS,5R,10bS)— 13-(cyclopropylmethyl)-9-hydroxy-2-oxo-4,4-a,5,6-tetrahydro-1H-5,10b-(epiminoethano)benzo[f]isoquinolin-3(2H)-yl)acetamide], the midpoint of the response, the EC50, lay at 1.65 ± 0.054 nM and the maximum response (Emax) stood at 104 ± 2.6%.

In turn, `O=C1C[C@]23CCN(CC4CC4)[C@H](Cc4ccc(O)cc42)[C@@H]3CN1` [Compound 7, (4aS,5R,10bS)-13-(cyclopropylmethyl)-9-hydroxy-4,4-a,5,6-tetrahydro-1H-5,10b-(epiminoethano)benzo[f]isoquinolin-2(3H)-one] yielded an EC50 of 0.21 ± 0.014 nM and an Emax of 106 ± 1.53%.

By EC50 is commonly meant the concentration at which the effect is half-maximal. Read a high EC50 as lower potency in that assay. As usually defined, the Emax is the greatest response seen or fitted, relative to the assay's reference.
